Measurements: patent US8703805B2 (Exelixis Patent Company LLC, priority 2005, dated 2014)

System: LXRα and/or LXRβ
Test: LXR/LXRE co-transfection assay (luciferase reporter, CV-1 cells)
Assay type: cell-based, human
Details: IC50 or EC50 for LXR (LXRα and/or LXRβ, not distinguished), tested as described in Example 109, CV-1 cells
Excerpt: To measure the ability of compounds to activate or inhibit the transcriptional activity of LXR in a cell based assay, the co-transfection assay was used. It has been shown that LXR functions as a heterodimer with RXR. For the co-transfection assay; expression plasmids for LXR and RXR are introduced via transient transfection into mammalian cells along with a luciferase reporter plasmid that contains one copy of a DNA sequence that is bound by LXR-RXR heterodimers (LXRE; Willy, P. ad. 1995). Treatment of transfected cells with an LXR agonist increases the transcriptional activity of LXR, which is measured by an increase in luciferase activity.
CV-1 African Green Monkey Kidney Cells Co-transfection expression plasmids, comprising full-length LXRα (pCMX-h LXRα, LXRβ (pCMX-hLXRβ), or RXRα (pCMX-RXR), reporter plasmid (LXREx1-Tk-Luciferase), and control (pCMX-Galactosidase expression vector) (Willey et al. Genes & Development 91033-1045 (1995)). Transfection reagent such as FuGENE6 (Roche). 1× Cell lysis buffer (1% Triton X 100 (IT Baker X200-07), 10% Glycerol (JT Baker M778-07), 5 mM Ditriotreitol (Quantum Bioprobe DTT03; add fresh before lysing), 1 mM EGTA (Ethylene Glycol-bis(B-Amino ethyl ether)-N,N,N′,N′-Tetracetic Acid) (Sigma E-4378), 25 mM Tricine (ICN 807420) pH 7.8) 1× Luciferase assay buffer (pH at 7.8) (0.73 mM ATP, 22.3 mM Tricine, 0.11 mM EDTA, 33.3 mM DTT) 1× Luciferrin/CoA (11 mM Luciferin, 3.05 mM Coenzyme A, 10 mM HEPES) Preparation of Screening Reagents
CV-1 cells were prepared 24 hours prior to the experiment by plating them into T-175 flasks or 500 cm^2 dishes in order to achieve 70-80% confluency on the day of the transfection. The number of cells to be transfected was determined by the number of plates to be screened. each 384 well plate requires 1.92×10^6 cells or 5000 cells per well. DNA Transfection Reagent was prepared by mixing the required plasmid DNAs with a cationic lipid transfection reagent FuGENE6 (Roche) by following the instructions provided with the reagents. Optimal DNA amounts were determined empirically per cell line and size of vessel to be transfected. 10-12 mL of media was added to the DNA Transfection Reagent and this mixture was added to the cells after aspirating media from the T175 cm^2 flask. Cells were then incubated at least 5 hours at 37° C. to prepare screening cells.
Luciferase assay reagent was prepared by combining before use (per 10 mL): […], 0.54 mL of 1× Luciferrin/CoA; 0.54 mL of 0.2 M Magnesium sulfate
Assay plates were prepared by dispensing 5 μL of compound per well of a 384 well plate to achieve final compound concentration of 10 μM and no more than 1% DMSO. Media was removed from the screening cells, the cells trypsinized, harvested cells by centrifugation, counted, and plated at a density of approximately 5000 cells per well in the 384 well assay plate prepared above in a volume of about 45 μL. Assay plates containing both compounds and screening cells (50 μL in total volume) were incubated for 20 hours at 37° C.
After incubation with compounds, media was removed from the cells and lysis buffer (30 μL/well) added. After 30 minutes at ambient temperature, luciferase assay buffer (30 μL/well) was added and the assay plates read on a luminometer (PE Biosystems Northstar reader with on-board injectors, or equivalent). Plates were read immediately after addition of luciferase assay buffer.
The LXR/LXRE co-transfection assay can be used to establish the EC50/IC50 values for potency and percent activity or inhibition for efficacy. Efficacy defines the activity of a compound relative to a high control ((N-(3-((4-fluorophenyl)-(naphthalene-2-sulfonyl)amino)propyl)-2,2-dimethylpropionamide)) or a low control (DMSO/vehicle). The dose response curves are generated from an 8 point curve with concentrations differing by ½ LOG units. each point represents the average of 4 wells of data from a 384 well plate. […]

| Structure (SMILES) | EC50 [nM] |
| --- | --- |
| CS(=O)(=O)c1cc(-c2ccc(-c3cc(C(F)(F)F)nn3-c3cc(Cl)ccc3Cl)s2)ccc1O [Example 1247, 4-{5-[1-(2,5-dichlorophenyl)-3-(trifluoromethyl)-1H-pyrazol-5-yl]-2-thienyl}-2-(methylsulfonyl)phenol] | 1000 to 10000 |
| COC(=O)Cc1ccc(-c2ccc(-c3cc(C(F)(F)F)nn3-c3ncccc3C(F)(F)F)s2)c(C)c1 [Example 1153, methyl [3-methyl-4-(5-{3-(trifluoromethyl)-1-[3-(trifluoromethyl)pyridin-2-yl]-1H-pyrazol-5-yl}-2-thienyl)phenyl]acetate] | 1000 to 10000 |
| Cc1ccc(C)c(-n2nc(C(C)(C)O)cc2-c2ccc(-c3cccc(S(C)(=O)=O)c3)s2)c1 [Example 1314, 2-[1-(2,5-dimethylphenyl)-5-{5-[3-(methylsulfonyl)phenyl]-2-thienyl}-1H-pyrazol-3-yl]propan-2-ol] | < 1000 |
| Cc1c(C(C)(C)O)nn(-c2ccccc2Cl)c1-c1ccc(-c2cccc(S(C)(=O)=O)c2)s1 [Example 1301, 2-[1-(2-chlorophenyl)-4-methyl-5-{5-[3-(methylsulfonyl)phenyl]-2-thienyl}-1H-pyrazol-3-yl]propan-2-ol] | < 1000 |
| Cc1cc(-c2cccc(S(C)(=O)=O)c2)ccc1-c1cc(C(=O)N2CCCC2)nn1-c1c(Cl)cccc1Cl [Example 148, (1-(2,6-dichlorophenyl)-5-(3-methyl-3′-(methylsulfonyl)biphenyl-4-yl)-1H-pyrazol-3-yl)(pyrrolidin-1-yl)methanone] | < 1000 |
| CS(=O)(=O)c1cccc(-c2ccc(-c3cc(C(=O)N4CCCC4)nn3-c3c(Cl)cccc3Cl)c(Cl)c2)c1 [Example 143, (5-(3-chloro-3′-(methylsulfonyl)biphenyl-4-yl)-1-(2,6-dichlorophenyl)-1H-pyrazol-3-yl)(pyrrolidin-1-yl)methanone] | < 1000 |
| CON(C)C(=O)c1cc(-c2ccc(-c3cccc(S(C)(=O)=O)c3)s2)n(-c2ccccc2Cl)n1 [Example 1162, 1-(2-chlorophenyl)-N-methyl-N-(methyloxy)-5-{5-[3-(methylsulfonyl)phenyl]-2-thienyl}-1H-pyrazole-3-carboxamide] | < 1000 |
| CN(CC#N)Cc1cc(-c2ccc(-c3cccc(S(C)(=O)=O)c3)s2)n(-c2ccccc2Cl)n1 [Example 558, [{[1-(2-chlorophenyl)-5-{5-[3-(methylsulfonyl)phenyl]-2-thienyl}-1H-pyrazol-3-yl]methyl}(methyl)amino]acetonitrile] | 1000 to 10000 |
| CC(C)(O)c1nn(-c2ccccc2Br)c(-c2ccc(-c3cccc(S(C)(=O)=O)c3)s2)c1Br [Example 1360, 2-[4-bromo-1-(2-bromophenyl)-5-{5-[3-(methylsulfonyl)phenyl]-2-thienyl}-1H-pyrazol-3-yl]propan-2-ol] | < 1000 |
| Cc1cc(-c2cccc(S(C)(=O)=O)c2)ccc1-n1nc(C(C)(C)O)c(Cl)c1-c1c(Cl)cccc1Cl [Example 1424, 2-(4-chloro-5-(2,6-dichlorophenyl)-1-(3-methyl-3′-(methylsulfonyl)biphenyl-4-yl)-1H-pyrazol-3-yl)propan-2-ol] | < 1000 |
| CN(C)C(C)(C)c1cc(-c2ccc(-c3cccc(S(C)(=O)=O)c3)s2)n(-c2ccccc2Cl)n1 [Example 1172, 2-[1-(2-chlorophenyl)-5-{5-[3-(methylsulfonyl)phenyl]-2-thienyl}-1H-pyrazol-3-yl]-N,N-dimethylpropan-2-amine] | < 1000 |
| COc1ncc(-c2ccc(-c3cc(C(C)(C)O)nn3-c3ccccc3Cl)cc2)cn1 [Example 1291, 2-[1-(2-chlorophenyl)-5-{4-[2-(methyloxy)pyrimidin-5-yl]phenyl}-1H-pyrazol-3-yl]propan-2-ol] | 1000 to 10000 |
| Cc1cc(NCCN2CCCCC2)ccc1-c1cc(C(C)(C)O)nn1-c1c(Cl)cccc1Cl [Example 1405, 2-(1-(2,6-dichlorophenyl)-5-(2-methyl-4-(2-(piperidin-1-yl)ethylamino)phenyl)-1H-pyrazol-3-yl)propan-2-ol] | > 10000 |
| COC(=O)c1cc(-c2cc(C(F)(F)F)nn2-c2ccccc2Cl)ccc1-c1cccc(S(C)(=O)=O)c1 [Example 1138, methyl 4-[1-(2-chlorophenyl)-3-(trifluoromethyl)-1H-pyrazol-5-yl]-3′-(methylsulfonyl)biphenyl-2-carboxylate] | 1000 to 10000 |

Second part, the compound after the results:

| EC50 [nM] | Structure (SMILES) |
| --- | --- |
| 1000 to 10000 | COC(=O)c1cc(-c2ccc(-c3cccc(S(C)(=O)=O)c3)s2)n(-c2ccccc2C(F)(F)F)n1 [Example 1156, methyl 5-{5-[3-(methylsulfonyl)phenyl]-2-thienyl}-1-[2-(trifluoromethyl)phenyl]-1H-pyrazole-3-carboxylate] |
| < 1000 | CC(C)(O)c1nn(-c2ccccc2Br)c(-c2ccc(-c3cccc(S(C)(=O)=O)c3)s2)c1Cl [Example 1368, 2-[1-(2-bromophenyl)-4-chloro-5-{5-[3-(methylsulfonyl)phenyl]-2-thienyl}-1H-pyrazol-3-yl]propan-2-ol] |
| 1000 to 10000 | CC(=O)c1cc(-c2ccccc2Cl)n(-c2ccc(-c3cccc(S(C)(=O)=O)c3)nc2)n1 [Example 1249, 1-[5-(2-chlorophenyl)-1-{6-[3-(methylsulfonyl)phenyl]pyridin-3-yl}-1H-pyrazol-3-yl]ethanone] |
| < 1000 | Cc1cc(-c2cccc(S(C)(=O)=O)c2)ccc1-c1c(Cl)c(C(C)(C)O)nn1-c1cccnc1C(F)(F)F [Example 1391, 2-(4-chloro-5-(3-methyl-3′-(methylsulfonyl)biphenyl-4-yl)-1-(2-(trifluoromethyl)pyridin-3-yl)-1H-pyrazol-3-yl)propan-2-ol] |
| 1000 to 10000 | CS(=O)(=O)c1cccc(-c2ccc(-c3cc(C(F)(F)F)nn3-c3ccccc3Cl)cc2C(=O)N2CCOCC2)c1 [Example 1142, 4-({4-[1-(2-chlorophenyl)-3-(trifluoromethyl)-1H-pyrazol-5-yl]-3′-(methylsulfonyl)biphenyl-2-yl}carbonyl)morpholine] |
| < 1000 | COC(=O)c1cccc(-n2nc(C(F)(F)F)cc2-c2ccc(-c3cccc(S(C)(=O)=O)c3)s2)c1 [Example 1186, methyl 3-[5-{5-[3-(methylsulfonyl)phenyl]-2-thienyl}-3-(trifluoromethyl)-1H-pyrazol-1-yl]benzoate] |
| < 1000 | CC(C)(O)c1cc(-c2ccc(-c3cccc(S(C)(=O)=O)c3)s2)n(-c2ccccc2)n1 [Example 1262, 2-(5-{5-[3-(methylsulfonyl)phenyl]-2-thienyl}-1-phenyl-1H-pyrazol-3-yl)propan-2-ol] |
| 1000 to 10000 | CC(C)(O)c1cc(-c2ccc(-c3cccc(S(C)(=O)=O)c3)s2)n(-c2ccc(F)cc2)n1 [Example 1263, 2-[1-(4-fluorophenyl)-5-{5-[3-(methylsulfonyl)phenyl]-2-thienyl}-1H-pyrazol-3-yl]propan-2-ol] |
| < 1000 | CC(C)(O)c1cc(-c2ccc(-c3cccc(S(C)(=O)=O)c3)s2)n(-c2cccc(Cl)c2F)n1 [Example 1328, 2-[1-(3-chloro-2-fluorophenyl)-5-{5-[3-(methylsulfonyl)phenyl]-2-thienyl}-1H-pyrazol-3-yl]propan-2-ol] |
| < 1000 | CS(=O)(=O)c1cccc(-c2ccc(-c3cc(C(=O)N4CCCC4)nn3-c3ccccc3Cl)s2)c1 [Example 1129, 1-(2-chlorophenyl)-5-{5-[3-(methylsulfonyl)phenyl]-2-thienyl}-3-(pyrrolidin-1-ylcarbonyl)-1H-pyrazole] |
